This note sets out measurements from patent US6723702B2, “Use of relaxin treat diseases related to vasoconstriction” (RAS Medical, Inc., priority 2000, dated 2004).

Where two headings read alike, the source gives them in different places.

One test has as its system rats. Put plainly: Metabolic cage studies. It is filed as in vivo, rat. The method, then: Six rats were individually housed in Nalgene metabolism cages (Rodent Metabolism Cages for 150-300 g rats, VWR Scientific). Water and food were provided ad libidum. After 5-7 days of habituation, two baseline 24-hour urine collections were obtained. Then, an osmotic minipump containing purified porcine RLX was implanted (4 μg/hour). […] Food and water intake, as well as urinary flow rate were measured by gravimetric technique. The urinary excretion of sodium, cyclic guanosine monophosphate, and NOx were also determined. The measurements made during the two baseline collections were averaged, as were the measurements made during the three post-relaxin collections.
Plasma osmolality was measured using a freezing-point depression instrumentation osmometer (Model 3MO, Advanced Instruments, Needham Heights, Mass.). Plasma and urine IN and PAH were assayed by standard techniques. Urinary sodium concentration was measured by ion selective electrode (Sodium-Potassium Chemistry Module, Beckman Instruments, Inc., Brea, Calif.). Urinary cGMP was determined by specific radioimmunoassay as previously described. Conrad and Vernier (1989) Am. J. Physiol. 257:R847-R853. Urinary NOX was measured by reduction of nitrate to nitrite, the latter determined by the Griess reaction which produces a calorimetric product measured at 540 nm (Nitrate/Nitrite Colorimetric Assay Kit, Cayman Chemical, Ann Arbor, Mich.).

Test [1] relates to hypoxia-exposed and room-air Sprague-Dawley rats. It is filed as in vivo, rat. As to conditions: for mean RVP compared to the veh-hyp group: hypoxia 10 days (FIG. 7). The method, then:
Outbred 6-week-old Sprague-Dawley rats, 200-220 g body weight, were obtained from Hilltop Laboratories, Scottdale, Pa. Recombinant human relaxin (rhRlx) (5.0 mg/ml in 20 mM sodium acetate, pH5.0) and vehicle (20 mM acetate, pH5.0) were provided by Connetics Corporation (Palo Alto, Calif.). Miniosmotic pumps were purchased from Alza Corporation (Model 2002, Alza Corp., Palo Alto, Calif.).
Mini osmotic pumps were filled to deliver rhRlx at […], or vehicle alone. Osmotic pumps were inserted subcutaneously in rats under a combination of ketamine and xylazine anaesthesia. The area around the back of the neck was shaved, cleaned with alcohol, and a small incision made for pump insertion. Incision was closed with surgical staples. After the animals were fully conscious they were randomly assigned to either hypoxic exposure or room air. Rats were subjected to either air or hypoxia, as described below. There were three groups of rats subjected to air: vehicle-treated (veh-air), 0.05 mg/kg/day rhRlx (low rhRlx-air), and 0.24 mg/kg/day rhRlx (hi rhRlx-air). There were three groups subjected to hypoxia: vehicle (veh-hyp), 0.05 mg/kg/day rhRlx (low rhRlx-hyp), and 0.24 mg/kg/day rhRlx (hi rhRlx-hyp).
Rats were exposed to hypoxia (10% O2, 90% N2) at ambient pressure (Kerr et al., 1987) for 10 days, control groups were exposed to room air in the same room. Hypoxic animals were fed standard rat chow and water. Age-matched control groups were weight-matched by feeding the amount of food consumed by the rats in the hypoxic groups. At the end of the test period, mean right ventricular pressure (RVP) was measured in rats anaesthetized with an intraperitoneal injection of 50 mg/kg pentobarbital sodium. The portal vein was then cut for hematocrit measurement (Hct) and blood sampling, and the ratio of the right ventricle to left ventricle plus septum measured [RV/(LV+S)] (Kerr et al., 1987). To determine the effect of acute administration of rhRlx on pulmonary artery pressure, four 10-day hypoxic rats were anaesthetized, as previously described, and RVP monitored for 1 hr following administration of a bolus dose of 2 μg rhRlx in 0.2 ml total volume, followed by an infusion of 2 μg rhRlx in 0.2 ml, given over 10 min.
The pulmonary artery trunk, right and left extrapulmonary branches were removed en bloc, cleaned of surrounding tissue, and weighed. The left lung was and excised and the entire hilar artery dissected from parenchyma and weighed (Tozzi et al. (1994) Am. J. Respir. Crit. Care Med. 149:1316-1326). Segments were hydrolyzed, and total hydroxyproline and protein determined (Poiani et al. (1990) Circ. Res. 66:968-978). Approximately 3 cc of whole blood was centrifuged, serum aspirated, and sample frozen at −20° C. for determination of rRlx levels by ELISA assay.

As for “Porcine RLX: lyophilized, purified porcine relaxin (Sherwood and O'Byrne 1974), dissolved in Ringer's solution”, in the test on rats (Baseline), the Food intake is 13.2 ± 1.0 g, the “Urinary NOx excretion” value came to 4.8 ± 0.5 μmole/24hours, the “Urinary cGMP excretion” value is 32.2 ± 1.9 nmole/24 hours and the Urinay sodium excretion came out at 438.8 ± 34.4 μEq/24hours. In the test with rats (Baseline), the Urine output is 9.1 ± 1.7 ml/24 hours and the Water intake came to 19.1 ± 2.7 mL. Besides, in the test on rats (Day 2 of RLX 4 μg/hour s.c.), the Food intake amounted to 15.5 ± 1.5 g, the “Urinary NOx excretion” value came out at 6.0 ± 1.0 μmole/24hours, the “Urinary cGMP excretion” value is recorded as 26.5 ± 2.5 nmole/24 hours and the Urinay sodium excretion was determined as 800.2 ± 77.2 μEq/24hours. In the test with rats (Day 2 of RLX 4 μg/hour s.c.), this substance displayed a Urine output of 11.4 ± 2.2 ml/24 hours and a Water intake of 20.1 ± 3.4 mL. Besides, in the test on rats (Day 5 of RLX 4 μg/hour s.c.), the Food intake worked out at 16.7 ± 1.0 g, the “Urinary NOx excretion” value is given as 5.9 ± 0.7 μmole/24hours, the “Urinary cGMP excretion” value stood at 28.6 ± 3.8 nmole/24 hours and the Urinay sodium excretion is on record as 477.8 ± 57.9 μEq/24hours. Also, in the test on rats (Day 5 of RLX 4 μg/hour s.c.), the Urine output worked out at 8.8 ± 0.9 ml/24 hours and the Water intake was found to be 23.6 ± 3.3 mL. In the test with rats (Post-relaxin day 4-18), the Food intake was determined as 15.3 ± 0.5 g, the “Urinary NOx excretion” value is on record as 6.1 ± 0.9 μmole/24hours, the “Urinary cGMP excretion” value turned out to be 32.7 ± 3.8 nmole/24 hours and the Urinay sodium excretion stood at 480.69 ± 54.4 μEq/24hours. Also, in the test on rats (Post-relaxin day 4-18), the Urine output is 9.1 ± 1.1 ml/24 hours and the Water intake worked out at 19.1 ± 2.6 mL.
“rhRLX: recombinant human relaxin, identical in amino acid sequence to the product of the human H2 gene; A chain of 24, B chain of 29 amino acids”: the “Hydroxyproline Hilar” value in test [1] (1 mg-air) is given as 38.0 ± 2.3 μg/vessel; in test [1] (1 mg-hyp) it was 41.0 ± 3.3 μg/vessel; in test [1] (5 mg-air) it was 33.5 ± 1.5 μg/vessel; in test [1] (5 mg-hyp), 37.0 ± 5.0*↑ μg/vessel. For the same substance, the “Hydroxyproline MPA” value in test [1] (1 mg-air) is given as 76.4 ± 4.0 μg/vessel; in test [1] (1 mg-hyp), 95.2 ± 3.6 μg/vessel; in test [1] (5 mg-air) it was 75.2 ± 4.0 μg/vessel; in test [1] (5 mg-hyp), 86.6 ± 6.0*↑ μg/vessel. Also, the “Protein Hilar” value is reported as 0.78 ± 0.3 mg/vessel in test [1] (1 mg-air), 0.90 ± 0.2 mg/vessel in test [1] (1 mg-hyp), 1.1 ± 0.1 mg/vessel in test [1] (5 mg-air) and 0.75 ± 0.8 mg/vessel in test [1] (5 mg-hyp). Further, the “Protein MPA” value in test [1] (1 mg-air) is given as 2.6 ± 0.2 mg/vessel; in test [1] (1 mg-hyp), 2.3 ± 0.2 mg/vessel; in test [1] (5 mg-air) it was 2.5 ± 0.3 mg/vessel; in test [1] (5 mg-hyp), 2.0 ± 0.4 mg/vessel. Also, the “RV/(LV+S) ratio compared to the veh-hyp group” value in test [1] (hi rhRlx-hyp) and in test [1] (low rhRlx-hyp) was “significantly reduced” throughout. For the same substance, the “mean RVP compared to the veh-hyp group” value in test [1] (high dose) and in test [1] (low dose) was “decreased” each time.
